± gives the expanded uncertainty stated by the source.
Experiment: molar heat capacity at constant pressure; mn = molality of the nth substance listed, in mol/kg
Conditions: 350 kPa, Liquid, high-precision DSC

CSCC[C@H](N)C(=O)O [L-methionine] + O
molar heat capacity at constant pressure [J/K/mol]
Conditions | m1 = 0.0125 | m1 = 0.025 | m1 = 0.05 | m1 = 0.0997 | m1 = 0.1501 | m1 = 0.1929
278.15 K | 75.75 ± 0.15 | 75.8 ± 0.15 | 75.86 ± 0.15 | 76.01 ± 0.15 | 76.17 ± 0.15 | 76.3 ± 0.15
283.15 K | 75.58 ± 0.15 | 75.64 ± 0.15 | 75.71 ± 0.15 | 75.87 ± 0.15 | 76.04 ± 0.15 | 76.19 ± 0.15
288.15 K | 75.47 ± 0.15 | 75.53 ± 0.15 | 75.6 ± 0.15 | 75.78 ± 0.15 | 75.96 ± 0.15 | 76.12 ± 0.15
293.15 K | 75.39 ± 0.15 | 75.46 ± 0.15 | 75.53 ± 0.15 | 75.72 ± 0.15 | 75.92 ± 0.15 | 76.08 ± 0.15
298.15 K | 75.34 ± 0.15 | 75.41 ± 0.15 | 75.49 ± 0.15 | 75.69 ± 0.15 | 75.89 ± 0.15 | 76.06 ± 0.15
303.15 K | 75.31 ± 0.15 | 75.38 ± 0.15 | 75.46 ± 0.15 | 75.67 ± 0.15 | 75.88 ± 0.15 | 76.05 ± 0.15
308.15 K | 75.3 ± 0.15 | 75.37 ± 0.15 | 75.45 ± 0.15 | 75.66 ± 0.15 | 75.88 ± 0.15 | 76.05 ± 0.15
313.15 K | 75.3 ± 0.15 | 75.37 ± 0.15 | 75.46 ± 0.15 | 75.67 ± 0.15 | 75.9 ± 0.15 | 76.06 ± 0.15
318.15 K | 75.31 ± 0.15 | 75.38 ± 0.15 | 75.47 ± 0.15 | 75.68 ± 0.15 | 75.92 ± 0.15 | 76.09 ± 0.15
323.15 K | 75.33 ± 0.15 | 75.4 ± 0.15 | 75.5 ± 0.15 | 75.71 ± 0.15 | 75.95 ± 0.15 | 76.12 ± 0.15
328.15 K | 75.37 ± 0.15 | 75.44 ± 0.15 | 75.53 ± 0.15 | 75.75 ± 0.15 | 75.99 ± 0.15 | 76.16 ± 0.15
333.15 K | 75.41 ± 0.15 | 75.48 ± 0.15 | 75.57 ± 0.15 | 75.79 ± 0.15 | 76.03 ± 0.15 | 76.21 ± 0.15
338.15 K | 75.45 ± 0.15 | 75.53 ± 0.15 | 75.62 ± 0.15 | 75.84 ± 0.15 | 76.08 ± 0.15 | 76.26 ± 0.15
343.15 K | 75.51 ± 0.15 | 75.59 ± 0.15 | 75.68 ± 0.15 | 75.9 ± 0.15 | 76.13 ± 0.15 | 76.32 ± 0.15
348.15 K | 75.58 ± 0.15 | 75.65 ± 0.15 | 75.75 ± 0.15 | 75.96 ± 0.15 | 76.2 ± 0.15 | 76.38 ± 0.15
353.15 K | 75.65 ± 0.15 | 75.72 ± 0.15 | 75.82 ± 0.15 | 76.03 ± 0.15 | 76.27 ± 0.15 | 76.46 ± 0.15
358.15 K | 75.73 ± 0.15 | 75.8 ± 0.15 | 75.9 ± 0.15 | 76.11 ± 0.15 | 76.35 ± 0.15 | 76.54 ± 0.15
363.15 K | 75.82 ± 0.15 | 75.88 ± 0.15 | 75.98 ± 0.15 | 76.2 ± 0.15 | 76.43 ± 0.15 | 76.62 ± 0.15
368.15 K | 75.91 ± 0.15 | 75.98 ± 0.15 | 76.08 ± 0.15 | 76.29 ± 0.15 | 76.53 ± 0.15 | 76.71 ± 0.15
373.15 K | 76.01 ± 0.15 | 76.08 ± 0.15 | 76.18 ± 0.15 | 76.39 ± 0.15 | 76.63 ± 0.15 | 76.81 ± 0.15
378.15 K | 76.13 ± 0.15 | 76.19 ± 0.15 | 76.29 ± 0.15 | 76.5 ± 0.15 | 76.74 ± 0.15 | 76.92 ± 0.15
383.15 K | 76.24 ± 0.15 | 76.31 ± 0.15 | 76.41 ± 0.15 | 76.62 ± 0.15 | 76.85 ± 0.15 | 77.03 ± 0.15
388.15 K | 76.38 ± 0.15 | 76.45 ± 0.15 | 76.54 ± 0.15 | 76.74 ± 0.15 | 76.98 ± 0.15 | 77.15 ± 0.15
393.15 K | 76.52 ± 0.15 | 76.6 ± 0.15 | 76.68 ± 0.15 | 76.88 ± 0.15 | 77.11 ± 0.15 | 77.28 ± 0.15
